Experimental data from patent publication US7691578B2, “Methods and compositions for treating obesity” (Dana-Farber Cancer Institute, Inc., priority 2004, dated 2010).
“Also recorded” adds a separate entry of the source. Like-named read-outs stand apart in the source and are kept apart here.

Legend:
AMP Kinase = test: Western blot of phosphorylated (activated) AMP Kinase in HIB1B cells; format: cell-based; conditions: 24 hours
Procedure: (§1) HIB1B brown fat cells were grown in DMEM (10% cosmic calf serum)+0.25 mg/ml penicillin/streptomycin at 37° C., 10% CO2.
(§2) In FIG. 2A, HIB1B cells were treated with 2 μM FCCP for 0-72 hours. In FIG. 2B, cells were treated with 50 μM FCCP for 0-48 hours. In FIG. 2C, cells were treated for 24 hours with either 50 μM FCCP or 500 μM AICAR, a compound that activates AMP Kinase. Protein was isolated, run on an SDS polyacrylamide gel, and transferred to a PVDF membrane, and blotted for the proteins indicated in the figures.

PGC-1α [1] = test: Real time PCR of PGC-1α expression in 10T 1/2 fibroblasts; format: cell-based
Procedure: (§3) HIB1B brown fat cells were grown in DMEM (10% cosmic calf serum)+0.25 mg/ml penicillin/streptomycin at 37° C., 10% CO2. 10T 1/2 fibroblasts were grown in DMEM+10% fetal bovine serum+0.25 mg/ml penicillin/streptomycin at 37° C., 10% CO2.
(§4) 10T 1/2 cells were treated with 50 μM FCCP, 10 μM BAPTA, a calcium chelator, or both FCCP and BAPTA for 16 hours. RNA was extracted using trizol and gene expression was measured using real time PCR. All expression levels were adjusted to actin and then the fold induction of expression was determined using the untreated cells as the control.
(§5) 10T 1/2 fibroblasts were grown in DMEM+10% fetal bovine serum+0.25 mg/ml penicillin/streptomycin at 37° C., 10% CO2. HIB1B cells were grown in DMEM+10% cosmic calf serum+0.25 mg/ml penicillin/streptomycin at 37° C., 10% CO2.
(§6) In FIG. 11A, 10T 1/2 cells were treated with 50 μM FCCP for 16 hours; in FIG. 11B, cells were treated for 72 hours with 25 μM FCCP. RNA was extracted using trizol and gene expression was measured using real time PCR. All expression levels were adjusted to actin and then the fold induction of expression was determined using the untreated cells as the control. In FIG. 11C, 10T 1/2 cells were treated for 16 hours with 50 μM FCCP. Lactate levels were measured using a lactate kit (Trinity Biotech), cells were counted, and lactate was graphed as mg lactate per million cells. In FIG. 12, HIB1B preadipocytes were treated with 25 μM FCCP, 250 μM DNP, 750 μM DNP or 1 mM DNP. RNA was extracted and run on a 1% agarose-formaldehyde gel (30 μg of RNA per lane). The gel was transferred to a nylon membrane and was probed for PGC-1α RNA and 36B4 RNA (36B4 represents the loading control).

PGC-1β [2] = test: Real time PCR of PGC-1β expression in 10T 1/2 fibroblasts; format: cell-based; conditions: 16 hours
Procedure: as §3, §4, §5
(§7) In FIG. 11A, 10T 1/2 cells were treated with 50 μM FCCP for 16 hours; in FIG. 11B, cells were treated for 72 hours with 25 μM FCCP. RNA was extracted using trizol and gene expression was measured using real time PCR. All expression levels were adjusted to actin and then the fold induction of expression was determined using the untreated cells as the control. In FIG. 11C, 10T 1/2 cells were treated for 16 hours with 50 μM FCCP. Lactate levels were measured using a lactate kit (Trinity Biotech), cells were counted, and lactate was graphed as mg lactate per million cells. […]

cytochrome c [3] = test: Real time PCR of cytochrome c expression in 10T 1/2 fibroblasts; format: cell-based; conditions: 16 hours
Procedure: as §3, §4, §5, §7

COX II [4] = test: Real time PCR of COX II expression in 10T 1/2 fibroblasts; format: cell-based; conditions: 16 hours
Procedure: as §3, §4, §5, §7

ATP synthase = test: Real time PCR of ATP synthase expression in 10T 1/2 fibroblasts; format: cell-based; conditions: 16 hours
Procedure: as §3, §4, §5, §7

PGC-1α [5] = test: Northern blot of PGC-1α expression in HIB1B brown fat cells; format: cell-based
Procedure: as §1
(§8) In FIGS. 1A and 1B, HIB1B cells were treated with 25 μM FCCP for 0-25 hours. In FIG. 1C, HIB1B cells were treated for 5 hours with 0-200 μM FCCP. RNA was extracted using trizol and was resuspended in ddH2O. RNA was run on a 1% agarose-formaldehyde gel, and 30 ug of RNA was used per lane. 36B4 was used as the loading control.
In FIG. 5A, HIB1B cells were treated with 0-15 μM Antimycin A, a Complex III inhibitor. In FIG. 5B, cells were treated for either 5 or 10 hours with 0-50 μM Atractlyoside, an adenine nucleotide transporter (ANT) inhibitor. RNA was extracted, run on a formaldehyde gel and transferred to a nylon membrane as previously described. Membranes were blotted for PGC-1α mRNA.
In FIG. 7, HIB1B cells were treated for 5 hours with 0-50 μM Ruthenium Red (RR), an inhibitor of the mitochondrial Ca^2+ uniporter, simultaneously with either 5 μM or 25 μM FCCP as indicated in the figure. Untreated cells served as a control. RNA was extracted and analyzed as previously described. Membranes were blotted for PGC-1α. 36B4 served as the loading control.
as §6

animals = conditions: large doses of DNP; cited from earlier work
PGC-1β [6] = conditions: HIB1B cells
Procedure: as §1, §8

PGC-1α protein = conditions: HIB1B cells, 2 μM FCCP, up to 72 hours
Procedure: as §1, §2

cytochrome c protein = conditions: HIB1B cells, 50 μM FCCP, up to 48 hours
Procedure: as §1, §2

PGC-1α [7] = conditions: HIB1B cells, 8 hours
Procedure: as §1
In FIG. 3, cells were treated for 8 hours as indicated on the figure. RNA was extracted as previously described and quantified using real time PCR. PGC-1α mRNA levels were normalized to TBP prior to analysis.

HIB1B brown fat cells = conditions: 25 μM FCCP
Procedure: as §1
In FIG. 4, HIB1B cells were treated for either 5 or 10 hours with either 0 μM or 25 μM FCCP. ATP levels were measured using the Calbiochem ATP assay kit. For analysis, ATP levels were compared to those of untreated cells at the 5 and 10 hour time points.

PGC-1β [8] = conditions: Fao cells
Procedure: (§9) Fao liver hepatoma cells were grown in RPMI (10% fetal bovine serum)+0.25 mg/ml penicillin/streptomycin at 37° C., 5% CO2.
(§10) In FIG. 6A, Fao liver hepatoma cells were treated with 2 μM FCCP for 0-48 hours. In FIGS. 6B and 6C, cells were treated for 24 hours with either 2 μM or 25 μM FCCP. RNA was extracted and analyzed as previously described.

UCP2 = conditions: Fao cells, 24 hour treatment, 2 μM and 25 μM FCCP
Procedure: as §9, §10

10T 1/2 fibroblasts = conditions: 50 μM FCCP, 16 hours
Procedure: as §5, §6

NRF-1 [9] = conditions: 10T 1/2 fibroblasts, 50 μM FCCP, 16 hours
Procedure: as §5, §6

COX II [10] = conditions: PGC-1α knock out preadipocytes, 25 μM FCCP, 24 hours
Procedure: (§11) Wild type and PGC-1α knock out preadipocytes were grown in DMEM+20% fetal bovine serum+0.25 mg/ml penicillin/streptomycin at 37° C., 10% CO2.
(§12) Wild type and PGC-1α knock out preadipocytes were treated for 24 hours with or without 25 μM FCCP. RNA was extracted using trizol and gene expression was measured using real time PCR. All expression levels were adjusted to actin and then the fold induction of expression was determined using the untreated cells as the control.

ERRα = conditions: PGC-1α knock out preadipocytes, 25 μM FCCP, 24 hours
Procedure: as §11, §12

NRF-1 [11] = conditions: PGC-1α knock out preadipocytes, 25 μM FCCP, 24 hours
Procedure: as §11, §12

PGC-1β [12] = conditions: PGC-1α knock out preadipocytes, 25 μM FCCP, 24 hours
Procedure: as §11, §12

[13] = tested on: adenine nucleotide translocase (ANT); conditions: PGC-1α knock out preadipocytes, 25 μM FCCP, 24 hours
Procedure: as §11, §12

cytochrome c [14] = conditions: PGC-1α knock out preadipocytes, 25 μM FCCP, 24 hours
Procedure: as §11, §12

[15] = in vivo; cited from earlier work
[16] = 10T 1/2 cells, 10 μM BAPTA with 50 μM FCCP
[17] = 5 hours, increasing doses of FCCP (0-200 μM)
[18] = 10T 1/2 fibroblasts, 50 μM FCCP

Procedure for mice: The procedures to be used in these experiments are as follows: IP injections of the chemical uncoupling agent FCCP are performed daily (see experimental design for dose and time information). The body temperature of the mice is measured one hour after injections so as to monitor pain and distress. If the temperature rises above 42 degrees the mice are sacrificed. The following tissues are collected from euthanized mice: brown fat, skeletal muscle, and liver, which contribute the most to standard metabolic rate. In addition, heart, pancreas, large intestine, small intestine, gall bladder, spleen, brain, testes, and ovary are collected. Tissues are used to assess PGC-1 gene expression and protein levels.
The maximum dose of FCCP that is used in this experiment is 0.5 mg/kg/day. The experiment is performed in C57 BL/6J and ob/ob (C57 BL/6J background) mice ordered from Jackson Laboratories.
Mice receive one IP injection of FCCP daily. The following experiment is repeated three times for statistical significance.
Body temperature is measured one hour after injections and weight is recorded every three days. Mice are sacrificed to avoid pain if the body temperature rises above 42 degrees. After the treatments as described above the mice are sacrificed using cervical dislocation with pre-anesthesia. […]

NC(=O)c1ncn([C@@H]2O[C@H](CO)[C@@H](O)[C@H]2O)c1N [AICAR]
AMP Kinase activation (phospho-AMP kinase) (AMP Kinase; 500 μM AICAR, positive control): activation

O=C(O)CN(CC(=O)O)c1ccccc1OCCOc1ccccc1N(CC(=O)O)CC(=O)O [BAPTA]
effect on FCCP-mediated induction of PGC-1α (PGC-1α [1]; 10T 1/2 cells, 10 μM BAPTA with 50 μM FCCP, 16 hours): blocked | effect on FCCP-mediated induction of PGC-1β (PGC-1β [2]; [16]): blocked | effect on FCCP-mediated induction of cytochrome c (cytochrome c [3]; [16]): blocked | effect on FCCP-mediated induction of COX II (COX II [4]; [16]): blocked | effect on FCCP-mediated induction of ATP synthase (ATP synthase; [16]): blocked

O=[N+]([O-])c1ccc(O)c([N+](=O)[O-])c1 [DNP, 2,4-dinitrophenol]
PGC-1α expression (PGC-1α [5]; 5 hours, three concentrations of DNP (250 μM, 750 μM, 1 mM)): caused an increase; also recorded: induces | toxic effect of large doses (animals): almost immediate onset of rigor mortis

N#CC(C#N)=NNc1ccc(OC(F)(F)F)cc1 [FCCP, carbonylcyanide-p-trifluoromethoxyphenylhydrazone]
PGC-1α expression levels (PGC-1α [5]; 25 μM FCCP, after 5 hours, sustained for 20 additional hours): induced | PGC-1α expression levels (PGC-1α [5]; [17]): increased | PGC-1β expression levels (PGC-1β [6]; 25 μM FCCP, after 10-15 hours, remained induced until 25 hours): induced | PGC-1β expression levels (PGC-1β [6]; [17]): did not increase | PGC-1α protein expression (PGC-1α protein): induced | cytochrome c protein levels (cytochrome c protein): induced | AMP Kinase activation (phospho-AMP kinase) (AMP Kinase; 50 μM FCCP): activated | induction of PGC-1 expression levels, real time PCR (PGC-1α [7]; 25 μM FCCP): 5.5 fold | increase in PGC-1α expression, real time PCR (PGC-1α [7]; 25 μM and 50 μM FCCP): 5-6 fold | induction of PGC-1α levels, real time PCR (PGC-1α [7]; 50 μM FCCP): 5 fold | drop in cellular ATP levels (HIB1B brown fat cells; 5 hours, versus untreated cells): 25% | ATP levels below that of untreated cells (HIB1B brown fat cells; 10 hours): approximately 20% | PGC-1β expression levels (PGC-1β [8]; 2 μM FCCP, after approximately 24 hours): increased | PGC-1β expression levels (PGC-1β [8]; 24 hour treatment, 2 μM and 25 μM FCCP): increased | UCP 2 expression levels (UCP2): increased | expression of the PGC-1 coactivators and their target genes after long term treatment (PGC-1α [1]; 10T 1/2 fibroblasts, 25 uM FCCP, 72 hours): remain elevated | PGC-1α expression (PGC-1α [1]; 10T 1/2 fibroblasts, 50 μM FCCP, 16 hours): induced | PGC-1β expression (PGC-1β [2]; [18]): induced | cytochrome c expression (cytochrome c [3]; [18]): induced | COX II expression (COX II [4]; [18]): induced | ATP synthase expression (ATP synthase; [18]): induced | lactate levels (10T 1/2 fibroblasts): induced | NRF-1 expression (NRF-1 [9]): induced | FCCP induction of COX II in cells that lack PGC-1α (COX II [10]): blocked | FCCP induction of ERRα in cells that lack PGC-1α (ERRα): blocked | FCCP induction of NRF-1 in cells that lack PGC-1α (NRF-1 [11]): blocked | FCCP induction of PGC-1β in cells that lack PGC-1α (PGC-1β [12]): blocked | FCCP induction of adenine nucleotide translocase (ANT) in cells that lack PGC-1α [13]: blocked | FCCP induction of cytochrome c in cells that lack PGC-1α (cytochrome c [14]): blocked | PGC-1α RNA and protein levels in brown fat and muscle tissue (mice; daily IP injection of FCCP): increase | body weight and adiposity (mice; safe dose of FCCP, daily IP injection): decrease | LD50 for FCCP relative to that of DNP [15]: about 5 times less

N.N.N.N.N.N.N.N.N.N.N.N.N.N.[Cl-].[Cl-].[Cl-].[Cl-].[Cl-].[Cl-].[O-2].[O-2].[Ru+3].[Ru+3].[Ru+4] [Ruthenium Red]
effect on FCCP-mediated induction of PGC-1α expression (PGC-1α [5]; 5 hours, 0-50 μM Ruthenium Red with 5 μM or 25 μM FCCP, reduced at 5, 10 and 25 μM RR): blocked part

C=C1[C@@H]2CC[C@H]3[C@]4(C)C[C@H](O[C@@H]5O[C@H](CO)[C@@H](OS(=O)(=O)O)[C@H](OS(=O)(=O)O)[C@H]5OC(=O)CC(C)C)C[C@@H](C(=O)O)[C@H]4CC[C@]3(C2)[C@H]1O [atractyloside]
PGC-1α expression (PGC-1α [5]; 5 μM atractyloside, 10 hours): increased | PGC-1α expression (PGC-1α [5]; 50 μM atractyloside, 5 hours): increased

Antimycin A
PGC-1α expression (PGC-1α [5]; 5 μM Antimycin A): increased | PGC-1α expression levels (PGC-1α [5]; 10 μM Antimycin): increase
